{
  "source": "patent US20140044766A1",
  "about": "“METHOD FOR THE ANTIMICROBIAL PROTECTION OF AN OBJECT USING AN ANTIMICROBIAL PRESSURE-SENSITIVE ADHESIVE PLASTICS FILM” (priority 2007, published 2014)",
  "key": {"[1]": {"system": "Staphylococcus aureus bacteria", "test": "inhibition zone method, similar to Japanese standard JIS L 1902: 2002", "type": "cell-based", "method": "The antimicrobial activity of the films was determined using the inhibition zone method, similar to that described in Japanese standard JIS L 1902: 2002. The film was cut into small disks with a diameter of 1 cm. They were immersed in a dish containing a nutrient medium and a known quantity of yellow colored Staphylococcus aureus bacteria. […] A protective halo was formed around the treated samples that was termed the inhibition zone, as shown in FIGS. 4-1 to 4-15 representing the results for the antimicrobial films of Examples 1 to 15. Measuring this halo allowed the intensity of the antimicrobial activity of the film to be determined."}, "Pseudomonas aeruginosa": {"system": "Pseudomonas aeruginosa", "conditions": "cited from earlier work"}, "[2]": {"system": "penicillin-resistant Stapylococcus aureus", "conditions": "cited from earlier work"}},
  "note": "“Also recorded” adds a separate entry of the source.",
  "data": [
    {"smiles": "Oc1cc(Cl)ccc1Oc1ccc(Cl)cc1Cl", "note": "[triclosan, 5-chloro-2-(2,4-dichlorophenoxy)phenol]", "values": [
      {"measurement": "antimicrobial activity in varnish-coated films (comparison in words)", "setting": "[1]; agent incorporated in acrylic varnish on PVC film", "result": "more effective than Parmetol CF10 and Irgaguard H6000; also recorded: retained a high activity compared with the others"},
      {"measurement": "antimicrobial activity in a film incorporating the agent in its material (comparison in words)", "setting": "[1]; cast PVC film, Examples 8 to 15", "result": "highest antimicrobial activity"},
      {"measurement": "effect on Pseudomonas aeruginosa", "setting": "Pseudomonas aeruginosa", "result": "not affected"},
      {"measurement": "effect on penicillin-resistant Stapylococcus aureus", "setting": "[2]", "result": "simply inhibited"}
    ]}
  ]
}
